Each block holds one compound with its values, some of them ahead of it. Where a SMILES comes first, the peptide text is derived from it. [ ]: non-standard residue; d: D form. The star is where a group is joined. Naproxen = COc1ccc2cc([C@H](C)C(=O)*)ccc2c1; Acetyl(2-naphthyl) = O=C(Cc1ccc2ccccc2c1)*
What was measured:
[1] = Body weight and serum lipid profile; format: in vivo, mouse; conditions: for HDL-C / LDL-C / TG (triglyceride) / Total-C (serum total cholesterol): serum
Source text: (§1) All animal studies were approved by the Animal Ethics Committee of Nankai University and followed the Tianjin Committee of Use and Care of Laboratory Animals. Male apoE^‑/‑ mice (~22 g bodyweight, ~8 weeks old) were purchased from the Beijing Vital River Laboratory Animal Technology Co., Ltd, which were used to set up the atherosclerotic model, as previously described. ApoE^-/- mice were randomly assigned into six groups (15 per group) and fed with HFD (21% fat plus 0.5% cholesterol; Mediscience, Ltd, Jiangsu, China; Cat No. MD12015A) for 16 weeks. […] At the end of the experiment, all mice were euthanatized by an overdose of 2,2,2-tribromoethanol (640 mg/kg, IP injection), followed by collection of aortas, blood, and peritoneal macrophages. Serum was prepared to determine levels of TNF-α, IL-1β and IL-6 by ELISA kits purchased from ABclonal, Inc. (Wuhan, China). The en face aortas were used to prepare aortic root cross sections followed by determination of en face and sinus lesions with Oil Red O staining. All the images were obtained with a microscope and quantified lesion areas in en face aorta by a computer-assisted image analysis protocol (Photoshop CS6). Necrotic core area, fibrous cap area, expression of MOMA-2, CD68, and α-SMA protein in lesion were determined by H&E and immunofluorescent staining with aortic root cross sections.

[2] = target: recombinant human Insulin-like Growth Factor-I Receptor (rhIGF-1R) (Homo sapiens, UniProt P08069); assay: Microscale thermophoresis binding to rhIGF-1R; conditions: for dissociated constant (KD) with rhIGF-1R: microscale thermophoresis, NT-647 labelled rhIGF-1R, PBS with 0.05% Tween 20 pH 7.4, compound 0.054 nM to 2 μM
Source text: (§2) The transparency of the prepared hydrogel in the visible light range of 380 nm-780 nm is detected by UV-Vis spectroscopy (Lambda 35 UV/Vis Spectrometer, Perkin-Elmer). […] Therefore, we conducted microscale thermophoresis experiments to determine their binding affinity to recombinant human Insulin-like Growth Factor-I Receptor (rhIGF-1R).
rhIGF-1R was labeled with the fluorescent dye NT-647 using a Monolith NT™ Protein Labelling Kit (cysteine-reactive) (NanoTemper Technologies, Germany). PBS buffer containing 0.05% Tween 20 (pH 7.4) was used as the assay buffer. For the interaction experiments of fluorescent proteins with Compound 1, 2, 3or 4, the concentration of labeled proteins were kept constant, while the concentration of Compound 1, 2, 3or 4 varied from 0.054 nM to 2 μM. Then, the solution of fluorescent proteins was mixed with solutions containing different concentrations of Compound 1, 2, 3or 4 at 1:1 volume ratio. After a short incubation time, the samples were loaded into MST NT.115 standard glass capillaries and the analysis was performed using the Monolith NT.115 system (NanoTemper Technologies, Germany). The KD value was calculated using the NanoTemper software package.

peritoneal macrophages = assay: Macrophage polarization and LPS-induced inflammation in vitro; format: cell-based, mouse
Method: (§3) Human aortic smooth muscle cells (HASMCs) were cultured in a completed DMEM F12 medium (10% fetal bovine serum, 50 μg/mL penicillin, and 50 μg/mL streptomycin). Peritoneal macrophages were cultured in complete RPMI1640 medium (10% fetal bovine serum, 50 μg/mL penicillin, 50 μg/mL streptomycin and 2 mM glutamine). HASMCs or peritoneal macrophages were seeded on a 6-well plate at the density of 3×10^5 cells per well before treatment. […] After treatment, total cellular proteins were extracted from peritoneal macrophages for determination of ABCA1 and ABCG1 by western blot, as previously described. Expression of CD68, SM22α, iNOS, CD206, TNF-α, IL-6, and IL-1β mRNA in HASMCs or macrophages was determined by quantitative real-time polymerase chain reaction (qRT-PCR) with total RNA extracted from cells and the primers listed in Table 1 and normalized to GAPDH mRNA levels in the corresponding samples.

[3] = test system: atherosclerotic lesions in apoE-/- mice; assay: Atherosclerotic lesion formation, Oil Red O staining; format: in vivo, mouse; conditions: high-fat diet 16 weeks, s.c. 100 μL of 1 μM weekly, n=15
Method: Male apoE^‑/‑ mice (~22 g bodyweight, ~8 weeks old) were purchased from the Beijing Vital River Laboratory Animal Technology Co., Ltd, which were used to set up the atherosclerotic model, as previously described[66]. ApoE^-/- mice were randomly assigned into six groups (15 per group) and fed with HFD (21% fat plus 0.5% cholesterol; Mediscience, Ltd, Jiangsu, China; Cat No. MD12015A) for 16 weeks. ApoE^-/- mice in the different groups were subcutaneously injected with either saline (100 µL, n=15), IGF-1 protein (1 μM, 100 μL, n=15), H1 (1 μM, 100 μL, n=15), H2 (1 μM, 100 μL, n=15), H3 (1 μM, 100 μL, n=15) or H4 (1 μM, 100 μL, n=15) weekly. At the end of the experiment, all mice were euthanatized by an overdose of 2,2,2-tribromoethanol (640 mg/kg, IP injection), followed by collection of aortas, blood, and peritoneal macrophages. […] The en face aortas were used to prepare aortic root cross sections followed by determination of en face and sinus lesions with Oil Red O staining. All the images were obtained with a microscope and quantified lesion areas in en face aorta by a computer-assisted image analysis protocol (Photoshop CS6).

[4] = test system: peritoneal macrophages from apoE-/- mice; assay: Foam cell formation, Oil Red O staining after ox-LDL; format: cell-based, mouse; conditions: same molar concentration, after exposure to ox-LDL, >10 lipid droplets per cell, n=5
Method: Human aortic smooth muscle cells (HASMCs) were cultured in a completed DMEM F12 medium (10% fetal bovine serum, 50 μg/mL penicillin, and 50 μg/mL streptomycin). Peritoneal macrophages were cultured in complete RPMI1640 medium (10% fetal bovine serum, 50 μg/mL penicillin, 50 μg/mL streptomycin and 2 mM glutamine). HASMCs or peritoneal macrophages were seeded on a 6-well plate at the density of 3×10^5 cells per well before treatment. […] To assess foam cell formation in vitro, peritoneal macrophages collected from apoE^-/- mice were plated on cover slips in 12-well plates. Subsequently, induction and determination of foam cells was conducted as previously described.

peritoneal macrophage = assay: Cholesterol efflux of peritoneal macrophage; format: cell-based, mouse; conditions: n=5, Figures S14 and S15B
Method: page 8: Figure S14. Cholesterol efflux of peritoneal macrophage were assessed after treatment as indicated, n=5. […] Figure S15. Effects of Npx and IGF-1 mimetic peptide on inflammation and cholesterol efflux. (A) qRT-PCR analysis of TNFα and IL-1β in macrophage after indicated treatment, n=5. (B) Cholesterol efflux of peritoneal macrophage were assessed after treatment as indicated, n=5. […]

[5] = test system: ABCA1 and ABCG1 in peritoneal macrophages; assay: ABCA1 and ABCG1 expression by western blot; format: cell-based, mouse; conditions: 10 nM overnight, versus GAPDH, n=5
Method: as §3

HASMCs = assay: VSMC switch to macrophage-like phenotype (αSMA immunofluorescence, CD68 and SM22α qRT-PCR); format: cell-based, human; conditions: n=5
Method: as §3

apoE-/- mice = assay: Inflammation and macrophage phenotype in vivo (aortic root immunofluorescence, serum ELISA, aorta qRT-PCR); parameters: species or system mouse
Source text: as §1

receptor of IGF-1 = conditions: earlier report of the same authors; cited from earlier work
Source text: Natural and recombinant human IGF-1 proteins (rhIGF-1) are limited in short half-lifes in biological systems and poor tissue retention. […] The C domain of […] in IGF-1 regulates its receptor binding and directly affects the biological activity of IGF-1. Nishida et al. reported that the C-domain of IGF-1 can promote the healing of corneal epithelial wounds. They screened a series of 12-amino acids of GST fusion protein and obtained mutants whose various ...

[6] = Transparency of hydrogels by UV-Vis spectroscopy; format: physicochemical; conditions: visible light range 380 nm-780 nm, hydrogel in PBS pH 7.4, 0.5 wt%
Source text: as §2

[7] = TEM of nanofibers in hydrogels; format: physicochemical; conditions: hydrogel in PBS, 0.5 wt%
[8] = Rheometer mechanical properties of hydrogels; format: physicochemical; conditions: hydrogel 1.0 wt%
Method: We then used a rheometer to characterize the mechanical properties of the hydrogels. […] The storage modulus (G') of the four hydrogels was approximately an order of magnitude higher than their loss modulus (G''), which indicated the formation of true gels. ApoE^-/- mice were then subcutaneously (s.c.) injected with 100 μL of the different hydrogels or natural IGF-1 protein solution per week and simultaneously fed a high-fat diet for 16 weeks. Atherosclerotic lesion formation was assessed after 16 weeks.

[9] = male apoE-/- mice, HFD 16 weeks, s.c. weekly, mean ± SD, n=15
[10] = 10 nM with ox-LDL 50 µg·mL^-1 overnight, qRT-PCR, versus ox-LDL-treated cells
[11] = peritoneal macrophages, LPS 100 ng·mL^-1 2 h then 10 nM overnight, immunofluorescent staining, versus control, n=5
[12] = double immunofluorescence staining with MOMA2, n=15

recombinant human Insulin-like Growth Factor-I Receptor (rhIGF-1R), sequence (P08069 31-1367): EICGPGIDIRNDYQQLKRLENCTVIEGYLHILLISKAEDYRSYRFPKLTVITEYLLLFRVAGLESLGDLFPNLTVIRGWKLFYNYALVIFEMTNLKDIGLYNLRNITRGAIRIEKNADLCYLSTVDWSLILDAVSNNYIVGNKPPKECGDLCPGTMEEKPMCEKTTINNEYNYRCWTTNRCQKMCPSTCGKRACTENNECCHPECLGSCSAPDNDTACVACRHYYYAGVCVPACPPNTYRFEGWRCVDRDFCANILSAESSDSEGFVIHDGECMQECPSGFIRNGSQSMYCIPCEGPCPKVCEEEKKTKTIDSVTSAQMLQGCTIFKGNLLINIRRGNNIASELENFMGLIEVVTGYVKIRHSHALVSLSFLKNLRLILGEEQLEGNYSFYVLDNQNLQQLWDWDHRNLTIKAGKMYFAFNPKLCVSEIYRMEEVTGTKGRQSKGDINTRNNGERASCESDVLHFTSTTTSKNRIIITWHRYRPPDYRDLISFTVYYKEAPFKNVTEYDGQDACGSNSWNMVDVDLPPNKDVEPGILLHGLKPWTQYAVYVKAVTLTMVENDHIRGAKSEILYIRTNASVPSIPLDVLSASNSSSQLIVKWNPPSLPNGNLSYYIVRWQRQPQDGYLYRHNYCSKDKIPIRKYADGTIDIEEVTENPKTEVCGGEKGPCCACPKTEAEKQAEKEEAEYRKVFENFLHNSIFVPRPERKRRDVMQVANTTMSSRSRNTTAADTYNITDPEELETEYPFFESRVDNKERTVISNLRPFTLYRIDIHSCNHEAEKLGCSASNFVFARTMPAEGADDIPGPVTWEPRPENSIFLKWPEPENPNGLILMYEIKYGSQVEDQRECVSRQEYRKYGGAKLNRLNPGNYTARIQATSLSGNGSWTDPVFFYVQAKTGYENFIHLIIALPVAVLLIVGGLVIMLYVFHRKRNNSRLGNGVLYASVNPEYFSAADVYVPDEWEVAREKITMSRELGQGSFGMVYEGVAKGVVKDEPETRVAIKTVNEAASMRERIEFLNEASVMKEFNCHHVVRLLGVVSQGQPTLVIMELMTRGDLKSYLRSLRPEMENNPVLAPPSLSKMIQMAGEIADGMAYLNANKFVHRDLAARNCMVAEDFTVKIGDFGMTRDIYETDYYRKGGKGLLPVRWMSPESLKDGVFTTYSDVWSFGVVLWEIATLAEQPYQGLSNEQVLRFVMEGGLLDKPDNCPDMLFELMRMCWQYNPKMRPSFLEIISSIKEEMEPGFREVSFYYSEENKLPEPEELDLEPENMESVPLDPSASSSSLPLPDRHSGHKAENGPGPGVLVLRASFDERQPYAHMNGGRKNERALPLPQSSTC

Compound: COc1ccc2cc([C@H](C)C(=O)N[C@H](Cc3ccccc3)C(=O)N[C@H](Cc3ccccc3)C(=O)NCC(=O)N[C@@H](CO)C(=O)N[C@@H](CO)C(=O)N[C@@H](CO)C(=O)N[C@@H](CCCNC(=N)N)C(=O)O)ccc2c1 [Compound H1, Npx-^DF^DFGSSSR] (Naproxen-[dF][dF]GSSSR-OH)
BW ([1]; mouse, in vivo, sc, SD): 26.49 ± 2.14 g

Compound: COc1ccc2cc([C@H](C)C(=O)N[C@@H](Cc3ccccc3)C(=O)N[C@@H](Cc3ccccc3)C(=O)NCC(=O)N[C@@H](CO)C(=O)N[C@@H](CO)C(=O)N[C@@H](CO)C(=O)N[C@@H](CCCNC(=N)N)C(=O)O)ccc2c1 [Compound H2, Npx-FFGSSSR] (Naproxen-FFGSSSR-OH)
BW ([1]; mouse, in vivo, sc, SD): 25.55 ± 2.31 g

Compound: N=C(N)NCCC[C@H](NC(=O)[C@H](CO)NC(=O)[C@H](CO)NC(=O)[C@H](CO)NC(=O)CNC(=O)[C@H](Cc1ccccc1)NC(=O)[C@H](Cc1ccccc1)NC(=O)Cc1ccc2ccccc2c1)C(=O)O [Compound H3, Nap-FFGSSSR] ({Acetyl(2-naphthyl)}-FFGSSSR-OH)
Kd [2]: 230 nM | BW [1, 9]: 26.79 ± 1.77 g

Compound: COc1ccc2cc([C@H](C)C(=O)O)ccc2c1 [Npx, naproxen, reference compound]
LPS-induced inflammation, components compared (Figure S15A) (peritoneal macrophages; macrophage in presence of LPS, qRT-PCR of TNF and IL-1, n=5): partly blocked LPS-induced inflammation

Compound: Insulin-like growth factor (IGF)-1 [IGF-1]
decrease in plaque size at the aortic root [3]: ~ 53% | reduction in lesion area, en face aorta [3]: ~ 42% | number of foam cells [4]: 22.0% | cholesterol efflux from peritoneal macrophage (peritoneal macrophage): more effective than Npx | expression of ABCA1 and ABCG1 in macrophages [5]: significantly enhanced expression | α-SMA expression in VSMCs (HASMCs; 10 nM overnight, immunofluorescent staining, versus control): expressed more α-SMA | CD68 expression in VSMCs (HASMCs; [10]): less CD68 | SM22α expression in VSMCs (HASMCs; [10]): more SM22α | Arg1 expression in macrophages in vitro (peritoneal macrophages; [11]): more Arg1 | CCR7 expression in macrophages in vitro (peritoneal macrophages; [11]): expressed less CCR7 | Arg1 expression in aortic root macrophages in vivo (apoE-/- mice; [12]): induced the expression of Arg1 | CCR7 expression in aortic root macrophages in vivo (apoE-/- mice; [12]): inhibited the expression of CCR7 | expression of proinflammatory cytokines in aortas (apoE-/- mice; qRT-PCR of TNF-α and IL-6, n=8): reduced the expression of these cytokines | HDL-C [1, 9]: 2.35 ± 0.89 mM | LDL-C [1, 9]: 4.08 ± 1.42 mM | TG (triglyceride) [1, 9]: 0.51 ± 0.13 mM | Total-C (serum total cholesterol) [1, 9]: 15.47 ± 2.76 mM | BW ([1]; mouse, in vivo, sc, SD): 25.04 ± 1.83 g

Compound: Nap-FFGGYGSSSRRAPQT [self-assembling peptide reported earlier by the authors]
binding affinity to the receptor of IGF-1 (receptor of IGF-1): high binding affinity

dissociated constant (KD) with rhIGF-1R [2]: Non KD | dissociated constant (KD) with rhIGF-1R ([2]; listed as Compound 4): no binding at all | transparency (mean transmittance) of hydrogel [6]: 71.08% | diameter of entangled nanofibers [7]: ~17.3 nm | storage modulus (G') [8]: 100 Pa
Compound: Nap-FFGSRSS [Compound H4, control without naproxen and with a scrambled tetrapeptide of SSSR]
number of foam cells [4]: almost no decrease | HDL-C [1, 9]: 2.34 ± 0.76 mM | LDL-C [1, 9]: 4.45 ± 1.23 mM | TG (triglyceride) [1, 9]: 0.52 ± 0.08 mM | Total-C (serum total cholesterol) [1, 9]: 16.63 ± 2.05 mM | BW ([1]; mouse, in vivo, sc, SD): 26.81 ± 2.06 g

From article PMC7481406, “Bifunctional supramolecular nanofiber inhibits atherosclerosis by enhancing plaque stability and anti-inflammation in apoE^-/- mice” (Theranostics, 2020)
